Drawing on BindingDB's records for patent US20250352549 (Avelos Therapeutics, 2025), this text covers IC50 for 26 compounds.

pIC50: −log10 of the molar value. A value given as a limit tells only on which side of the number the result lay.

The target in the test is T1, Serine/threonine-protein kinase greatwall (Human, UniProt Q96GX5).
T1 sequence (Q96GX5 whole entry): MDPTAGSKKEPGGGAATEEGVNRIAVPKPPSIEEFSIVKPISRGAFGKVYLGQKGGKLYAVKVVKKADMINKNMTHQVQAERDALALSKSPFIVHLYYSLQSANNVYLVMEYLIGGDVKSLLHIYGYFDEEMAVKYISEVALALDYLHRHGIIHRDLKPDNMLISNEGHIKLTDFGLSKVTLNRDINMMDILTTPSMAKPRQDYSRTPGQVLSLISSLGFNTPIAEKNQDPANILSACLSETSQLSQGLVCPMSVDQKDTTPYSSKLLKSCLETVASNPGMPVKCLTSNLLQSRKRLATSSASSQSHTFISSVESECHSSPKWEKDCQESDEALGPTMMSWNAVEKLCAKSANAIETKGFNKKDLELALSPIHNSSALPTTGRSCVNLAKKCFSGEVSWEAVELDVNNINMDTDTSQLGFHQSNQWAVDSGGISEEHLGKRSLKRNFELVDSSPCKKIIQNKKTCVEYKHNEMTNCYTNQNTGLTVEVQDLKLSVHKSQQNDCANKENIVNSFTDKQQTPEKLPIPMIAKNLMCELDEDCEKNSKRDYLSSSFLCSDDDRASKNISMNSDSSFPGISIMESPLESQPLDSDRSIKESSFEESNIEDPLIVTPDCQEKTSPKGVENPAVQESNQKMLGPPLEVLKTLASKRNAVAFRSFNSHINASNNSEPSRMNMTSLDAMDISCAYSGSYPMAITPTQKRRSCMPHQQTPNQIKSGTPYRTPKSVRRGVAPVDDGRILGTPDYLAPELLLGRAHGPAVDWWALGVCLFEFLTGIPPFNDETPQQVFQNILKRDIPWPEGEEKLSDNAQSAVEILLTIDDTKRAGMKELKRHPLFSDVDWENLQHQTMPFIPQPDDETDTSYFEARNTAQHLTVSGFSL
Put plainly: MASTL Activity Assay. The protocol: Wild-type human active MASTL (154 pM) was incubated in assay buffer (50 mM HEPES, 100 mM NaCl, 0.1 mM EGTA, 10 mM MgCl2, 0.01% Tween-20, 0.5 mM TCEP, pH 7.5) with biotin tagged 40-mer ENSA peptide (10 nM), test compound and ATP (18 μM) for 60 minutes at room temperature. Test compounds were assayed using a 12-point dose range consisting of a 0, DMSO control and 10 sequential doses consisting from 0.0005, 0.002, 0.005, 0.014, 0.04, 0.12, 0.37, 1.11, 3.33 and 10 μM. The DMSO concentration was the same (1%) in all samples. An equal volume of detection buffer (assay buffer+267.5 pM Ab-K, 1.25 nM SA-D2, 20 mM EDTA and 400 mM KF) was added to stop the reaction to make a final volume of 20 μl, RT for 60 mins. Activity was measured using a plate reader (PerkinElmer EnSight) by the FRET signal generated between SA-D2 (streptavidin-D2) and Ab-K (anti-phospho-Serine 67 ENSA antibody (rabbit polyclonal, using standard techniques by a commercial supplier) conjugated to Cryptate). HTRF reagents (CisBio) were prepared as per the manufacturer recommendations. The 40-mer biotin-tagged ENSA peptide (synthesised by Bionics) used was based around Serine 67 on ENSA ([…]).
As for `Cc1ncc2ccc(-c3nc(N)nc(NCc4c[nH]c(C(F)(F)F)n4)n3)cn12` [US20250352549, Example 151], the negative logarithm of the IC50 (pIC50) (in general, the negative decadic logarithm of the IC50, by convention in mol/L) is more than 6.30.

Compound `COC(=O)C(Cc1cccc(Cl)c1Cl)Nc1nc(N)nc(-c2ccc3cnc(C)n3c2)n1` (stereo unspecified) [US20250352549, Example 4] gave a pIC50 of more than 6.30.

On to `Cc1ncc2ccc(-c3nc(N)nc(N(C)C(c4cn(C)c(C(F)(F)F)n4)C(C)C)n3)cn12` (stereo unspecified) [US20250352549, Example 169], for which the IC50 (as a rule, the midpoint of a concentration-inhibition curve) was “in the range around 750 nM”.

In the case of `Cn1ncc2cc(-c3nc(N)nc(NC(C)(C)c4c[nH]c(C(F)(F)F)n4)n3)ccc21` [US20250352549, Example 46], the negative-log IC50 (pIC50) is more than 6.30.

Regarding `CNc1nc(NC(C)(C)c2ccn(C(F)F)n2)nc(-c2ccc3[nH]ncc3c2)n1` [US20250352549, Example 26], the pIC50 was more than 6.30.

`CNc1nc(NC(C)(C)c2ccn(C(F)F)n2)nc(-c2ccc3cnn(C)c3c2)n1` [US20250352549, Example 172] showed a negative-log IC50 (pIC50) of more than 6.30.

Compound `[2H]C([2H])([2H])n1ncc2ccc(-c3nc(N)nc(NC(C)(C)c4ccn(C(F)F)n4)n3)cc21` [US20250352549, Example 9] showed a pIC50 of more than 6.30.

The compound `CNc1nc(NC(Cc2cccc(Cl)c2Cl)C(=O)O)cc(-c2ccc3cnc(C)n3c2)n1` (stereo unspecified) [US20250352549, Example 145] showed a pIC50 of more than 6.30.

In the case of `CONC(=O)C(Cc1cccc(Cl)c1Cl)Nc1nc(N)nc(-c2ccc3cnc(C)n3c2)n1` (stereo unspecified) [US20250352549, Example 20], the pIC50 is more than 6.30.

On to `Cc1nc(C)n2cc(-c3nc(N)nc(NC(c4c[nH]c(C(F)(F)F)n4)C(C)C)n3)ccc12` (stereo unspecified) [US20250352549, Example 181], for which the pIC50 was more than 6.30.

On to `CC(=O)NC(CNc1cc(-c2ccc3cnc(C)n3c2)nc(N)n1)c1cccc(Cl)c1Cl` (stereo unspecified) [US20250352549, Example 18], for which the pIC50 is more than 6.30.

As to `CC(C)(Nc1nc(N)nc(-c2ccc3cnc(N)n3c2)n1)c1c[nH]c(C(F)(F)F)n1` [US20250352549, Example 11], the pIC50 is more than 6.30.

In turn, `Cc1ncc2ccc(-c3nc(N)nc(N(C)Cc4cccc(Cl)c4F)n3)cn12` [US20250352549, Example 163] gave a pIC50 of more than 6.30.

The compound `[2H]C([2H])([2H])Nc1nc(NC(CC)c2c[nH]c(C(F)(F)F)n2)nc(-c2ccc3cnc(C)n3c2)n1` (stereo unspecified) [US20250352549, Example 5] had a pIC50 of more than 6.30.

Regarding `CC(C)(Nc1nc(N)nc(-c2ccc3cnc(O)n3c2)n1)c1ccn(C(F)F)n1` [US20250352549, Example 38], the pIC50 was less than 6.00.

`Cc1ncc2ccc(-c3cc(NCC(N)c4cccc(Cl)c4Cl)nc(N)n3)cn12` (stereo unspecified) [US20250352549, Example 16] had a pIC50 of more than 6.30.

In turn, `CC(C)(Nc1nc(N)nc(-c2ccc3cnc(N)n3c2)n1)c1ccn(C(F)F)n1` [US20250352549, Example 10] showed a pIC50 of more than 6.30.

The compound `Nc1nc(NCCc2ccc(Cl)c(F)c2F)nc(-c2ccc3cnc(N)n3c2)n1` [US20250352549, Example 42] gave a pIC50 of more than 6.30.

As for `CNC(CNc1cc(-c2ccc3cnc(C)n3c2)nc(N)n1)c1cccc(Cl)c1Cl` (stereo unspecified) [US20250352549, Example 17], the pIC50 was more than 6.30.

In the case of `Cc1nn(C)c2cc(-c3nc(N)nc(NC(c4c[nH]c(C(F)(F)F)n4)C(C)C)n3)ccc12` (stereo unspecified) [US20250352549, Example 44], the negative-log IC50 (pIC50) is more than 6.30.

Compound `Cc1ncc2ccc(-c3nc(C#N)nc(NC(C)(C)c4ccn(C(F)F)n4)n3)cn12` [US20250352549, Example 12] gave a pIC50 of less than 6.00.

In turn, `Cc1ncc2ccc(-c3nc(N)nc(NC(Cc4cccc(Cl)c4Cl)c4nnn[nH]4)n3)cn12` (stereo unspecified) [US20250352549, Example 21] showed a pIC50 of more than 6.30.

Consider `Cc1ncc2ccc(-c3cc(NC(Cc4cccc(Cl)c4Cl)C(N)=O)nc(N)n3)cn12` (stereo unspecified) [US20250352549, Example 148], for which the pIC50 is more than 6.30.

Compound `Cc1nc(F)c2ccc(-c3nc(N)nc(NC(c4c[nH]c(C(F)(F)F)n4)C(C)C)n3)cn12` (stereo unspecified) [US20250352549, Example 147] showed a pIC50 of more than 6.30.

The compound `CNc1nc(NC(c2ccn(C(F)F)n2)C(C)C)nc(-c2ccc3[nH]ncc3c2)n1` (stereo unspecified) [US20250352549, Example 27] gave a pIC50 of more than 6.30.

`CC(C)C(Nc1nc(N)nc(-c2ccc3cn[nH]c3c2)n1)c1c[nH]c(C(F)(F)F)n1` (stereo unspecified) [US20250352549, Example 156] gave a pIC50 of more than 6.30.
